According to ChEMBL document CHEMBL1133319, “Eryloside F, a novel penasterol disaccharide possessing potent thrombin receptor antagonist activity” (Bioorg Med Chem Lett, 2000):
Values after ≈ are worked out from the molar mass of the structure shown.

Columns and labels:
[1] = organism: Homo sapiens; test: Inhibitory concentration of compound was determined against U-46619 (3 uM) induced platelet aggregation; assay type: functional
[2] = organism: Homo sapiens; test: Inhibitory concentration of compound was determined against SFLLRN (3 uM) induced platelet aggregation; assay type: functional

Question: What does the source list for CC(C)=CCC[C@@H](C)[C@H]1CC[C@@]2(C(=O)O)C3=C(CC[C@]12C)[C@@]1(C)CC[C@H](O[C@@H]2OC[C@H](O)[C@H](O)[C@H]2O[C@@H]2O[C@H](CO)[C@H](O)[C@H](O)[C@H]2O)C(C)(C)[C@@H]1CC3 [ERYLOSIDE F]?
Answer: IC50 [1]: 1.7 µg/mL (≈ 2.26 µM); IC50 [2]: 0.3 µg/mL (≈ 0.399 µM)
